± gives the standard deviation of the averaged measurements.
Assays:
[1] = system: Homo sapiens (human subject panel, olfactory perception); assay: perceived odor intensity rating (rating 0-100); higher = stronger perceived smell
Method: (§1)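 Human olfactory psychophysics. 55 healthy subjects (after excluding 6 low performers) sniffed 1 mL of each odorant diluted in paraffin oil (vials, two dilutions per molecule, 20 molecules presented twice). Each subject rated intensity, pleasantness and familiarity on a 0-100 slider, starting at 50 and required to move. Ratings were given only when the subject reported detecting a smell; per-subject ratings are averaged over subjects.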

[2] = system: Homo sapiens (human subject panel, olfactory perception); assay: perceived odor pleasantness rating (rating 0-100); higher = more pleasant
Method: as §1

[3] = system: Homo sapiens (human subject panel, olfactory perception); assay: perceived odor familiarity rating (rating 0-100); higher = more familiar
Method: as §1

[4] = odor dilution in paraffin oil: 1/1,000
[5] = odor dilution in paraffin oil: 1/100,000
[6] = odor dilution in paraffin oil: 1/10
[7] = odor dilution in paraffin oil: 1/10,000,000

| Structure (SMILES) | perceived odor intensity rating [1, 4] | perceived odor intensity rating [1, 5] | perceived odor pleasantness rating [2, 4] | perceived odor pleasantness rating [2, 5] | perceived odor familiarity rating [3, 4] | perceived odor familiarity rating [3, 5] | perceived odor intensity rating [1, 6] | perceived odor pleasantness rating [2, 6] | perceived odor familiarity rating [3, 6] | perceived odor intensity rating [1, 7] | perceived odor pleasantness rating [2, 7] | perceived odor familiarity rating [3, 7] |
| --- | --- | --- | --- | --- | --- | --- | --- | --- | --- | --- | --- | --- |
| OCCCCCc1ccccc1 [5-Phenyl-1-pentanol] | 53.4 ± 30 | 17.2 ± 22 | 53.6 ± 22 | 56.8 ± 23 | 49.2 ± 29 | 34.5 ± 32 | – | – | – | – | – | – |
| CC(=O)CC/C=C(\C)CCC=C(C)C [6,10-Dimethyl-5,9-undecadien-2-one] | 42.1 ± 30 | 13 ± 12 | 41.8 ± 23 | 53 ± 21 | 43.6 ± 26 | 40.3 ± 30 | – | – | – | – | – | – |
| CC(=O)c1cc2c(cc1C)C(C)(C)C(C)CC2(C)C (centres undefined) [6-Acetyl-1,1,2,4,4,7-Hexamethyltetralin] | 29.8 ± 28 | – | 67.7 ± 21 | – | 49.1 ± 31 | – | 51.7 ± 28 | 67.4 ± 24 | 57.3 ± 30 | – | – | – |
| CC(=O)CCC=C(C)C [6-Methyl-5-hepten-2-one] | 70.7 ± 23 | 22.4 ± 25 | 48.6 ± 30 | 52.6 ± 23 | 51.9 ± 31 | 31.9 ± 29 | – | – | – | – | – | – |
| Cc1ccc2oc(=O)ccc2c1 [6-Methylcoumarin] | 62.9 ± 27 | – | 53.9 ± 28 | – | 55.2 ± 30 | – | 80.1 ± 19 | 40.8 ± 32 | 48.9 ± 32 | – | – | – |
| CCCCCC(=O)CCCCC [6-Undecanone] | 43.3 ± 30 | 8.22 ± 16 | 49.5 ± 27 | 52.7 ± 29 | 43.3 ± 31 | 32.9 ± 32 | – | – | – | – | – | – |
| Cc1ccc2ncccc2c1 [6-methyl quinoline] | 68.2 ± 27 | 50.9 ± 30 | 36.7 ± 27 | 60.4 ± 23 | 44 ± 30 | 44.3 ± 31 | – | – | – | – | – | – |
| COc1ccc2ccc(=O)oc2c1 [7-Methoxycoumarin] | 42.3 ± 24 | – | 59.3 ± 25 | – | 47.2 ± 29 | – | 62 ± 26 | 62 ± 25 | 52 ± 30 | – | – | – |
| CC1(C)C2CC=C(C=O)C1C2 [(1R)-(-)-Myrtenal] | – | 62.4 ± 26 | – | 40.3 ± 25 | – | 48.3 ± 31 | – | – | – | 33.8 ± 31 | 50.1 ± 24 | 40.7 ± 33 |
| CC1CC[C@H](C(C)C)[C@@H](O)C1 (some centres undefined) [( + )-menthol] | 51 ± 31 | – | 52 ± 24 | – | 51.8 ± 29 | – | 83.4 ± 14 | 55.3 ± 28 | 73.7 ± 26 | – | – | – |
| C=C(C)[C@@H]1CC[C@@H](C)C[C@H]1O [(-)-Isopulegol] | 24.4 ± 27 | – | 45.1 ± 24 | – | 37.8 ± 32 | – | 81.1 ± 17 | 56.9 ± 27 | 73.2 ± 29 | – | – | – |
| CC[C@H](C)O [(S)-( + )-2-butanol] | 16.4 ± 22 | 24.7 ± 27 | 50.2 ± 22 | 50.7 ± 21 | 33.1 ± 30 | 40.9 ± 30 | – | – | – | – | – | – |
| CCOC(C)OCC [Acetal] | 48.7 ± 34 | 43.1 ± 33 | 42.5 ± 24 | 47.9 ± 22 | 44.7 ± 28 | 35.2 ± 28 | – | – | – | – | – | – |
| COc1ccc(C(C)=O)cc1 [Acetanisole] | 44.1 ± 28 | – | 68.8 ± 19 | – | 50 ± 26 | – | 82.2 ± 16 | 53.3 ± 28 | 56.5 ± 30 | – | – | – |
| COc1cc(C(C)=O)ccc1O [Acetovanillone] | 35 ± 32 | – | 55.1 ± 21 | – | 41 ± 30 | – | 64 ± 28 | 45.7 ± 25 | 47.6 ± 29 | – | – | – |
| O=C(O)CCCCC(=O)O [Adipic acid] | 14 ± 16 | – | 38.5 ± 18 | – | 34 ± 29 | – | 35.7 ± 28 | 52.7 ± 24 | 43.5 ± 27 | – | – | – |
| C=CCOC(=O)C(CC)CC [Allyl 2-ethylbutyrate] | 68.5 ± 28 | 33.9 ± 28 | 51.5 ± 28 | 67 ± 19 | 51.6 ± 29 | 44.1 ± 30 | – | – | – | – | – | – |

| Structure (SMILES) | perceived odor intensity rating [1, 4] | perceived odor intensity rating [1, 5] | perceived odor pleasantness rating [2, 4] | perceived odor pleasantness rating [2, 5] | perceived odor familiarity rating [3, 4] | perceived odor familiarity rating [3, 5] | perceived odor intensity rating [1, 6] | perceived odor pleasantness rating [2, 6] | perceived odor familiarity rating [3, 6] | perceived odor intensity rating [1, 7] | perceived odor pleasantness rating [2, 7] | perceived odor familiarity rating [3, 7] |
| --- | --- | --- | --- | --- | --- | --- | --- | --- | --- | --- | --- | --- |
| C=CCOC(=O)c1ccco1 [Allyl 2-furoate] | 60.6 ± 29 | 27 ± 28 | 31.9 ± 23 | 41.8 ± 21 | 40.9 ± 29 | 39.9 ± 27 | – | – | – | – | – | – |
| C=CCSCC=C [Allyl Sulfide] | – | 43.2 ± 35 | – | 37.2 ± 25 | – | 40.8 ± 30 | – | – | – | 27.3 ± 24 | 42.7 ± 23 | 35.4 ± 25 |
| C=CCOC(=O)c1ccccc1N [Allyl anthranilate] | 55.1 ± 31 | 16.4 ± 19 | 52 ± 27 | 50.7 ± 25 | 45.9 ± 29 | 33.4 ± 26 | – | – | – | – | – | – |
| C=CCOC(=O)CCC [Allyl butyrate] | 78.6 ± 20 | 54.3 ± 31 | 23.7 ± 24 | 33.2 ± 24 | 45.2 ± 31 | 49.2 ± 28 | – | – | – | – | – | – |
| C=CCOC(=O)/C=C/c1ccccc1 [Allyl cinnamate] | 57 ± 32 | 46.8 ± 30 | 52.4 ± 28 | 52.4 ± 24 | 40.5 ± 28 | 44 ± 27 | – | – | – | – | – | – |
| C=CCOC(=O)CCC1CCCCC1 [Allyl cyclohexanepropionate] | 57.9 ± 25 | 30.6 ± 30 | 60.9 ± 23 | 54.7 ± 24 | 58.7 ± 29 | 32.5 ± 27 | – | – | – | – | – | – |
| C=CCOC(=O)CCCCCC [Allyl heptanoate] | 53.9 ± 31 | 22.2 ± 26 | 73.7 ± 20 | 55.4 ± 23 | 57.9 ± 31 | 37.8 ± 29 | – | – | – | – | – | – |
| C=CCOC(=O)Cc1ccccc1 [Allyl phenylacetate] | – | 33.8 ± 29 | – | 33 ± 27 | – | 44 ± 25 | – | – | – | 25.7 ± 25 | 49.8 ± 28 | 29.4 ± 16 |
| C=CCOC(=O)/C(C)=C/C [Allyl tiglate] | 71.9 ± 24 | 48 ± 29 | 41.1 ± 28 | 44.3 ± 23 | 49.6 ± 31 | 46.1 ± 32 | – | – | – | – | – | – |
| CC1(C)CCC[C@]2(C)[C@H]3CCO[C@]3(C)CC[C@@H]12 [Ambrox] | 50.1 ± 30 | – | 62.8 ± 23 | – | 60.9 ± 28 | – | 73.6 ± 23 | 55.7 ± 27 | 61 ± 27 | – | – | – |
| CCCCCOC(=O)CCC [Amyl butyrate] | 59.2 ± 26 | 20.8 ± 25 | 55.8 ± 28 | 47.7 ± 30 | 51.7 ± 32 | 32.9 ± 32 | – | – | – | – | – | – |
| CCCCCOC(=O)CCCCC [Amyl hexanoate] | 28.8 ± 29 | – | 53.8 ± 27 | – | 38.1 ± 30 | – | 67.3 ± 25 | 44.6 ± 28 | 39.1 ± 30 | – | – | – |
| C[C@@]12C=CC[C@H]1[C@@H]1CCC3=CC(=O)CC[C@]3(C)[C@H]1CC2 [Androstadienone] | 63.1 ± 32 | 38.2 ± 35 | 29.2 ± 24 | 38.6 ± 27 | 45.8 ± 34 | 31.6 ± 30 | – | – | – | – | – | – |
| COc1ccc(COC(C)=O)cc1 [Anisyl acetate] | 59.4 ± 26 | 31.7 ± 26 | 69.8 ± 21 | 48.7 ± 25 | 52.8 ± 29 | 39.3 ± 30 | – | – | – | – | – | – |
| N[C@@H](CC(=O)O)C(=O)O [Aspartic Acid] | 29.7 ± 30 | – | 35 ± 23 | – | 40 ± 30 | – | 63.6 ± 27 | 32.1 ± 28 | 46.6 ± 32 | – | – | – |
| COC(OC)c1ccccc1 [Benzaldehyde dimethyl acetal] | 68.6 ± 24 | 29.2 ± 25 | 35 ± 24 | 49.9 ± 24 | 41.5 ± 31 | 38.7 ± 29 | – | – | – | – | – | – |
| CC1COC(c2ccccc2)O1 (centres undefined) [Benzaldehyde propylene glycol acetal] | 50.5 ± 29 | 28.8 ± 32 | 45.5 ± 23 | 47.2 ± 22 | 36.3 ± 27 | 34.2 ± 22 | – | – | – | – | – | – |
